# Experiments:
# [1] = system: Langendorff perfused rat heart; assay: Langendorff perfused rat heart (LVP, CPP, ECG); conditions: for QRS (intraventricular conduction time): control 13.4 ± 0.7; for PQ (atrioventricular conduction time): control 37.8 ± 1.8; for QTc (corrected QT): control 72.97 ± 1.7; for RR (cycle length): control 231.4 ± 7.8; for HR (frequency): control 261.9 ± 9.6
# Experimental: Spontaneously beating heart was retrogradely perfused via the aorta at a constant perfusion flow in a Langendorff apparatus (Radnoti, Dublin, Ireland) with a physiological salt solution containing (mM) NaCl 118, KCl 4.7, CaCl2 2.5, MgSO4 1.2, NaHCO3 25, KH2PO4 1.2, glucose 11.5, Na pyruvate 2, and EDTA 0.5, and bubbled with a 95% O2−5% CO2 gas mixture (pH 7.4), and kept at 37 °C, as described elsewhere. Hearts were allowed to equilibrate for at least 20 min before 7 exposure. Heart contractility was measured as left ventricle developed pressure (LVDP) using a deionized water-filled latex balloon, connected to a pressure transducer (BLPR, WPI, Berlin, Germany) and inserted into the left ventricular cavity through the mitral valve. A pressure transducer (BLPR, WPI, Berlin, Germany) was placed in the inflow line, to record coronary perfusion pressure (CPP), a measure of coronary vascular resistance. Two steel electrodes, one positioned on the left atrium and the other on the apex of the heart, were used to record the surface electrocardiogram. Heart rate (HR) and RR (cycle length), PQ (atrioventricular conduction time), QRS (intraventricular conduction time), and QT (ventricular depolarization and repolarization) intervals were measured. The digital PowerLab data acquisition system (PowerLab 8/30; ADInstruments, Castle Hill, Australia) and Chart Pro for Windows software v. 7.3.7 (PowerLab; ADInstruments, Castle Hill, Australia) were used to record and analyze LVP, CPP, and ECG. As the QT interval is affected by HR changes (e.g., it shortens when HR increases), Bazett's formula normalized to average rat RR (QTc = QT/(RR/f)1/2) was routinely used to correct it, thus avoiding confounding effects. In this study, “f” (the normalization factor according to the basal RR duration) was 231.4 ms, as this was the average cardiac cycle length.
# CaV1.2 channel = biological target: T1, CaV1.2 channel (Rattus norvegicus, UniProt P22002); assay: Whole-cell patch-clamp, Ba2+ current through CaV1.2 channels (IBa1.2) in rat tail artery myocytes; assay type: cell-based; conditions: pulses to 10 mV from Vh −50 mV
# T1 construct: smooth muscle cells were freshly isolated; endogenous in cells; host or cells: freshly isolated rat tail main artery smooth muscle cells
# T1 sequence (P22002 whole entry): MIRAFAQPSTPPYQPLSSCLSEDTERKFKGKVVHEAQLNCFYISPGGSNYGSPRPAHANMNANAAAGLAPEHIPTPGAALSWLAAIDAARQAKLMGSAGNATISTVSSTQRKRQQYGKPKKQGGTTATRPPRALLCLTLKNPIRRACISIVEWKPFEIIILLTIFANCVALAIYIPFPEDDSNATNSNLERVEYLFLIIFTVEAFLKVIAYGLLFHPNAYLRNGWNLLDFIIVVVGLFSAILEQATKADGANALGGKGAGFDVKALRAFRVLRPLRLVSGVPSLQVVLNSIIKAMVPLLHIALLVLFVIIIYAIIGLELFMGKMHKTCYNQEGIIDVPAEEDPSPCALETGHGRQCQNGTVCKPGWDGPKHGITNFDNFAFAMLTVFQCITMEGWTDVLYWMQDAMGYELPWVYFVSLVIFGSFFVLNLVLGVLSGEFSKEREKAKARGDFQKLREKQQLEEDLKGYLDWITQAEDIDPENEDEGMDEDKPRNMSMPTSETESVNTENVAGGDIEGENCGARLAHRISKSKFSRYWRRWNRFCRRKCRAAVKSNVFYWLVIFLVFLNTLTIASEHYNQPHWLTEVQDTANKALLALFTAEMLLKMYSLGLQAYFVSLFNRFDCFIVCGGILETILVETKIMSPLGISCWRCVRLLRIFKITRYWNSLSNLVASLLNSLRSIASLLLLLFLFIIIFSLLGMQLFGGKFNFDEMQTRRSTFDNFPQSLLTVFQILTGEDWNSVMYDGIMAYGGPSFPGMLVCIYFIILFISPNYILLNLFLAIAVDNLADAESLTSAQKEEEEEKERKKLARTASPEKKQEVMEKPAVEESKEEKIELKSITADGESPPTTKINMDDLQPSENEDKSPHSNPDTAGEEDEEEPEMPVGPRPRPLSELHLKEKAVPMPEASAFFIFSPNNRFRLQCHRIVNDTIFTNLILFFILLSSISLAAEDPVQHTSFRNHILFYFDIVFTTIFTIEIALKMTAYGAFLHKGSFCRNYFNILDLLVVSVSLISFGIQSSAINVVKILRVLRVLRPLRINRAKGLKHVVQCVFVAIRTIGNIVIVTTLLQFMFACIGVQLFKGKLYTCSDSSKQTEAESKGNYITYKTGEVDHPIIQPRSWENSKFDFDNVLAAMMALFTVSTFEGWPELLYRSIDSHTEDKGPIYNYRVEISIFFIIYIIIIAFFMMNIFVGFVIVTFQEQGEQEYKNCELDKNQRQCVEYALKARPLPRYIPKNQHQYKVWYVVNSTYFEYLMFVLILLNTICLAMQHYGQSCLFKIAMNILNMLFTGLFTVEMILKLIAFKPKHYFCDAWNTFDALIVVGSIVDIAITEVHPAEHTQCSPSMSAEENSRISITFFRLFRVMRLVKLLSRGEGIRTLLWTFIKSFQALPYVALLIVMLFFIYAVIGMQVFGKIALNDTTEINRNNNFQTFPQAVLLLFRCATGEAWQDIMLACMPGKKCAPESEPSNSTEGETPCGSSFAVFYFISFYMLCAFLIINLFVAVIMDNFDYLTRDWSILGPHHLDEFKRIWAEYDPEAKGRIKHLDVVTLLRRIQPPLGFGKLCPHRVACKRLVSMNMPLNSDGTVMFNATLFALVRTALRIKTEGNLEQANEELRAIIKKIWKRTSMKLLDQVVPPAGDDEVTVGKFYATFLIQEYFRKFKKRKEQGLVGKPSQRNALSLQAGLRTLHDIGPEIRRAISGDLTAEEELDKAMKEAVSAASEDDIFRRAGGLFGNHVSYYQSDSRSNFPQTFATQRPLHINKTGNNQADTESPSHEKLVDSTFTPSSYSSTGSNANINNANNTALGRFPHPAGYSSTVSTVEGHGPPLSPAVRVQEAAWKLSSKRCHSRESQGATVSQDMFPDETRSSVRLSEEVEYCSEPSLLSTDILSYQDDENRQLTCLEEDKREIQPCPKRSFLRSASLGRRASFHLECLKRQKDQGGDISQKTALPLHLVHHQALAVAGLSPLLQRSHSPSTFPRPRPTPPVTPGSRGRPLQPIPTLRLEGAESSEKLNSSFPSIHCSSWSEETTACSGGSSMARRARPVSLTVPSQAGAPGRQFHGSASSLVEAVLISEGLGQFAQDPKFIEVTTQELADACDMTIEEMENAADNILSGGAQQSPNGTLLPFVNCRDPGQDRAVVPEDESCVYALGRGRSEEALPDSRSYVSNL
# T1 sequence (P54290 25-944 partner limits assumed): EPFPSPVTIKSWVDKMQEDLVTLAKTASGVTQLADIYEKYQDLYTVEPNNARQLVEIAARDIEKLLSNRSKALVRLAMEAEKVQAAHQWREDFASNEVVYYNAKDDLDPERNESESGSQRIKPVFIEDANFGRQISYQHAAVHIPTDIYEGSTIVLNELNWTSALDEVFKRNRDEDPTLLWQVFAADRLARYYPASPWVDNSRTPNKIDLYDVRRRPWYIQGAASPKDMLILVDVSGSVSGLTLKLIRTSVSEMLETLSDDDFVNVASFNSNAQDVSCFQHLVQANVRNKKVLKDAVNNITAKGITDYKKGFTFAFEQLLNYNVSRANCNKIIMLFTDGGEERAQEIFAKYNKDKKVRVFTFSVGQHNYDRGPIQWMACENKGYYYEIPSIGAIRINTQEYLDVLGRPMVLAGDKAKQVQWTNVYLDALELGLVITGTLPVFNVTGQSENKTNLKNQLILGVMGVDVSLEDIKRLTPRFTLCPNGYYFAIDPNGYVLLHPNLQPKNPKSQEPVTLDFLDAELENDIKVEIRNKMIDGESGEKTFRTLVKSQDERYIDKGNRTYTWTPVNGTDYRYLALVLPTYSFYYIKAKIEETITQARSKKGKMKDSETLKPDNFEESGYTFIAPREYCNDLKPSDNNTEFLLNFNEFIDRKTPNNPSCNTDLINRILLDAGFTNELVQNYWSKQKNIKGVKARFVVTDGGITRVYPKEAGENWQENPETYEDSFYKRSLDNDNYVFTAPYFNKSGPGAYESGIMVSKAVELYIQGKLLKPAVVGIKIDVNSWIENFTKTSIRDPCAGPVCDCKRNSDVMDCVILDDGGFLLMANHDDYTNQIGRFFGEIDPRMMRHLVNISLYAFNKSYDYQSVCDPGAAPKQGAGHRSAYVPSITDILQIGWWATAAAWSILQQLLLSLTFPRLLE
# T1 sequence (P54290 945-1091 partner limits assumed): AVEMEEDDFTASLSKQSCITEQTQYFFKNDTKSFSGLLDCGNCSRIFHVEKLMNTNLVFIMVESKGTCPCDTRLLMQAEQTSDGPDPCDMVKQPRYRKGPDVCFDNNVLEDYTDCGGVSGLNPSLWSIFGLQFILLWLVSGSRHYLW
# T1 sequence (P54287 whole entry partner): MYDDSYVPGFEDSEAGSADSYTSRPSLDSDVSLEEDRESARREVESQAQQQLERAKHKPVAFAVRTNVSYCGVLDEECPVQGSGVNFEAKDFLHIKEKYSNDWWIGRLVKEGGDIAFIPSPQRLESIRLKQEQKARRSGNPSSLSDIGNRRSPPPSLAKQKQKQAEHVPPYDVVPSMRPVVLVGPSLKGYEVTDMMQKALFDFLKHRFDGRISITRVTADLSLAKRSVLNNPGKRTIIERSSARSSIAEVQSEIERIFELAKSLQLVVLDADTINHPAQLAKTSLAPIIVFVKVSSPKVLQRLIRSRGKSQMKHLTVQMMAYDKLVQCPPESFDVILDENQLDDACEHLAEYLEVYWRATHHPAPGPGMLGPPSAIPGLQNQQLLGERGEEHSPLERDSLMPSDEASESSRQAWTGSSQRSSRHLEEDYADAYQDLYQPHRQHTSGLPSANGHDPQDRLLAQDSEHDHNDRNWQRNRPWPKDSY
# Experimental: The tail main artery was dissected free of its connective tissue, and smooth muscle cells were freshly isolated under the following conditions. […] Cells stored in 0.05 mM Ca^2+ external solution containing 20 mM taurine and 0.5 mg/mL BSA at 4 °C under normal air were used for experiments within two days after isolation.
# An Axopatch 200B patch-clamp amplifier (Molecular Devices Corporation, Sunnyvale, CA, USA) was used to generate and apply voltage pulses to the clamped cells and record the corresponding membrane currents. Recording electrodes were pulled from borosilicate glass capillaries (WPI, Berlin, Germany) and fire-polished to obtain a pipette resistance of 2–4 MΩ, when filled with an internal solution. At the beginning of each experiment, the junction potential between the pipette and bath solution was electronically adjusted to zero. […] Electrophysiological responses were tested at room temperature (20–22 °C).
# The conventional whole-cell patch-clamp method was employed to voltage-clamp smooth muscle cells. The internal solution consisted of (in mM) 100 CsCl, 10 HEPES, 11 EGTA, 2 MgCl2, 1 CaCl2 (pCa 8.4), 5 Na pyruvate, 5 succinic acid, 5 oxaloacetic acid, 3 Na2ATP, and 5 phosphocreatine; pH was adjusted to 7.4 with CsOH. IBa1.2 was recorded in an external solution containing 30 mM TEA and 5 mM Ba^2+. […] Data were collected once the current amplitude had been stabilized (usually 7–10 min after the whole-cell configuration had been obtained).
# KCa1.1 channel = biological target: T2, KCa1.1 channel (Rattus norvegicus, UniProt Q62976); assay: Whole-cell patch-clamp, K+ current through KCa1.1 channels (IKCa1.1) in tail artery myocytes; assay type: cell-based; conditions: 3, 10 and 30 µM cumulative; membrane potential 30–70 mV, Vh −40 mV
# T2 construct: IKCa1.1 measured in tail artery myocytes; endogenous in cells; host or cells: freshly isolated rat tail main artery smooth muscle cells
# Experimental: The tail main artery was dissected free of its connective tissue, and smooth muscle cells were freshly isolated under the following conditions. […] This solution was gently bubbled and stirred with a 95% O2–5% CO2 gas mixture, as previously described. Cells stored in 0.05 mM Ca^2+ external solution containing 20 mM taurine and 0.5 mg/mL BSA at 4 °C under normal air were used for experiments within two days after isolation.
# An Axopatch 200B patch-clamp amplifier (Molecular Devices Corporation, Sunnyvale, CA, USA) was used to generate and apply voltage pulses to the clamped cells and record the corresponding membrane currents. Recording electrodes were pulled from borosilicate glass capillaries (WPI, Berlin, Germany) and fire-polished to obtain a pipette resistance of 2–4 MΩ, when filled with an internal solution. At the beginning of each experiment, the junction potential between the pipette and bath solution was electronically adjusted to zero. […]
# K^+ current through the KCa1.1 channel (IKCa1.1) (registration period 500 ms) was measured over a range of test potentials, from −20 mV to 70 mV from a Vh of −40 mV. […] The current–voltage relationships were calculated based on the values recorded during each test pulse (leakage corrected offline). […]
structure (smiles),measurement,setting,value
CC1(C)CCC[C@]2(C)[C@@H](CC(=O)Nc3ccccc3-n3cccc3)[C@](C)(O)CC[C@@H]12 [Compound 7],QRS (intraventricular conduction time),[1]; 1 µM,13.6 ± 0.5 ms
same,PQ (atrioventricular conduction time),[1]; 1 µM,37.2 ± 2.0 ms
same,QTc (corrected QT),[1]; 1 µM,71.59 ± 0.8 ms
same,RR (cycle length),[1]; 1 µM,230.8 ± 7.4 ms
same,HR (frequency),[1]; 1 µM,261.8 ± 9.4 bpm
same,QRS (intraventricular conduction time),[1]; 3 µM,14.0 ± 0.6 ms
same,PQ (atrioventricular conduction time),[1]; 3 µM,37.4 ± 1.9 ms
same,QTc (corrected QT),[1]; 3 µM,72.65 ± 1.3 ms
same,RR (cycle length),[1]; 3 µM,231.8 ± 7.1 ms
same,HR (frequency),[1]; 3 µM,256.9 ± 8.3 bpm
same,QRS (intraventricular conduction time),[1]; 10 µM,13.9 ± 0.6 ms
same,PQ (atrioventricular conduction time),[1]; 10 µM,39.0 ± 1.9 ms
same,QTc (corrected QT),[1]; 10 µM,73.31 ± 1.2 ms
same,RR (cycle length),[1]; 10 µM,236.4 ± 7.1 ms
same,HR (frequency),[1]; 10 µM,255.3 ± 8.0 bpm
same,QRS (intraventricular conduction time),[1]; 30 µM,15.2 ± 0.8 ms
same,PQ (atrioventricular conduction time),[1]; 30 µM,42.2 ± 2.7 ms
same,QTc (corrected QT),[1]; 30 µM,75.13 ± 1.7 ms
same,RR (cycle length),[1]; 30 µM,249.8 ± 10.7 ms
same,HR (frequency),[1]; 30 µM,242.8 ± 11.5 bpm
same,Effect on coronary perfusion pressure (CPP),"[1]; 1–30 µM, n = 5",significantly decreased CPP
same,Effect on left ventricular pressure (LVP),"[1]; 1–30 µM, n = 5",leaving LVP unaltered
same,Emax,"CaV1.2 channel; read-out: Emax (percent maximal inhibition), IBa1.2",90.5 ± 5.8%
same,IC50,"CaV1.2 channel; read-out: IC50, IBa1.2 inhibition",13.2 ± 5.4 µM
same,Effect on IKCa1.1,KCa1.1 channel,significant concentration-dependent stimulation of the current
